Like-named read-outs stand apart in the source and are kept apart here.

The values that follow come from patent US6462039B1, “Fungicidal benzoheterocyclyloxime” (Bayer Aktiengesellschaft, priority 1998, dated 2002).

In data set [1] the test system is Fusarium nivale (var. nivale). As to the kind of experiment: Fusarium nivale (var. nivale) test (wheat)/protective. Format: in vivo. The following applies: protective, application rate 250 g/ha, evaluation 4 days after inoculation. The text has this:
Fusarium Nivale (Var. Nivale) Test (Wheat)/Protective Solvent: 25 parts by weight of N,N-dimethylacetamide Emulsifier: 0.6 part by weight of alkylaryl polyglycol ether […] To test for protective activity, young plants are sprayed with the preparation of active compound at the stated application rate. After the spray coating has dried on, the plants are sprayed with a conidia suspension of Fusarium nivale (var. nivale).

The next data set concerns Puccinia recondita. As to the kind of experiment: Puccinia test (wheat)/protective. It is filed as in vivo. The following applies: protective, application rate 250 g/ha, evaluation 10 days after inoculation. The procedure:
Puccinia Test (Wheat)/Protective Solvent: 25 parts by weight of N,N-dimethylacetamide Emulsifier: 0.6 part by weight of alkylaryl polyglycol ether […] To test for protective activity, young plants are sprayed with the preparation of active compound at the stated application rate. After the spray coating has dried on, the plants are dusted with a conidia suspension of Puccinia recondita. […] The plants are then placed in a greenhouse at a temperature of approximately 20° C. and a relative atmospheric humidity of 80% to promote the development of rust pustules.

Data set [2] relates to Erysiphe graminis f.sp. hordei. As to the kind of experiment: Erysiphe test (barley)/protective. The settings on record: protective, application rate 250 g/ha, evaluation 7 days after inoculation. Format: in vivo. Here is the method:
Erysiphe Test (Barley)/Protective Solvent: 25 parts by weight of N,N-dimethylacetamide Emulsifier: 0.6 part by weight of alkylaryl polyglycol ether To produce a suitable preparation of active compound 1 part by weight of active compound is mixed with the stated amounts of solvent and emulsifier and the concentrate is diluted with water to the desired concentration. To test for protective activity, young plants are sprayed with the preparation of active compound at the stated application rate. After the spray coating has dried on, the plants are dusted with spores of Erysiphe graminis f.sp. hordei. The plants are placed in a greenhouse at a temperature of approximately 20° C. and a relative atmospheric humidity of approximately 80% to promote the development of mildew pustules.

For data set [3], the system named is Erysiphe graminis f.sp. hordei. As to the kind of experiment: Erysiphe test (barley)/curative. It is filed as in vivo. The settings on record: curative (sprayed 48 hours after inoculation), application rate 250 g/ha, evaluation 7 days after inoculation. Here is the method: Erysiphe Test (Barley)/Curative Solvent: 25 parts by weight of N,N-dimethylacetamide Emulsifier: 0.6 part of weight of alkylaryl polyglycol ether To produce a suitable preparation of active compound 1 part by weight of active compound is mixed with the stated amounts of solvent and emulsifier and the concentrate is diluted with water to the desired concentration. To test for curative activity, young plants are dusted with spores of Erysiphe graminis f.sp. hordei. 48 hours after the inoculation, the plants are sprayed with the preparation of active compound at the stated application rate. The plants are placed in a greenhouse at a temperature of approximately 20° C. and a relative atmospheric humidity of approximately 80% to promote the development of mildew pustules.

Experimental for physchem: The logP values were determined in accordance with EEC Directive 79/831 Annex V. A8 by HPLC (gradient method, acetonitrile/0.1% aqueous phosphoric acid)

Turning to `CCn1nc(/C(C)=N\O)c2ccccc21` [(II-a-2)], the chromatographic logP in the data set “physchem” amounted to 2.13.
The compound `CCCn1nc(/C(C)=N\O)c2ccccc21` [(II-a-3)] displayed a chromatographic logP in “physchem” of 2.55.
On the same count and under the same terms, as for `C=CCn1nc(/C(C)=N\O)c2ccccc21` [(II-a-4)], the figure is 2.28; as for `C/C(=N/O)c1nn(C(C)C)c2ccccc12` [(II-a-5)], 2.72.
Still for that read-out and setting: as for `COc1ccc2c(/C(C)=N\O)nn(C)c2c1` [(II-a-6)], the figure is 1.76.
Same read-out and setting: as for `C/C(=N/O)c1cn(C(F)F)c2ccccc12` [(II-a-7)], the figure is 2.25.
For `CCn1cc(C(C)=O)c2ccccc21` [(V-2)], the chromatographic logP stood at 2.35.
On the same count and under the same terms, under `CCCn1nc(C(C)=O)c2ccccc21` [(V-3)] stands 2.81.
`C=CCn1nc(C(C)=O)c2ccccc21` [(V-4)] displayed a chromatographic logP of 2.53.
With `CC(=O)c1nn(C(C)C)c2ccccc12` [(V-5)], the chromatographic logP came out at 2.98.
In the data set “physchem”, `COc1ccc2c(C(C)=O)nn(C)c2c1` [(V-6)] yielded a chromatographic logP of 1.99.
`CC(=O)c1cn(C(F)F)c2ccccc12` [(V-7)]: the chromatographic logP was found to be 2.22.
`CO/N=C(/C1=NOCCO1)c1ccccc1CO/N=C(\C)c1nn(C)c2ccccc12` [Example 1, O-{2-[(5,6-dihydro-[1,4,2]dioxazin-3-yl)-methoxyiminomethyl]-benzyl}1-(1-methyl-1H-indazol-3-yl)-ethanone-oxime]: the efficacy (in data set [1]; in the data set with Puccinia recondita; in data set [2]; in data set [3]) was 100% in each case.
Take `CC(=O)c1nn(C(F)F)c2ccccc12` [Example (V-1), 1-(1-difluoromethyl-1H-indazol-3-yl)-ethanone]: the chromatographic logP was 2.67.

Usually chromatographic logP stands for lipophilicity estimated from chromatographic retention. Read a low chromatographic logP as lower lipophilicity.
